# Measurements from article PMC7217150, “Synthesis, Modification, and Biological Evaluation of a Library of Novel Water‐Soluble Thiopyridone‐Based Organometallic Complexes and Their Unexpected (Biological) Behavior” (Chemistry (Weinheim an Der Bergstrasse, Germany), 2020).
# Where two headings read alike, the source gives them in different places.
# Key:
# SW480 [1] = details: SW480, MTT assay, 96 h; cited from earlier work
# A549 [2] = details: A549, MTT assay, 96 h; cited from earlier work
# CH1/PA‐1 [3] = details: CH1/PA‐1, MTT assay, 96 h; cited from earlier work
# [4] = test system: human cancer cell lines CH1/PA‐1, SW480, A549; design: method as in PMID 26365319; details: cited from earlier work
# CH1/PA‐1 [5] = experiment: MTT cytotoxicity assay, monolayer culture; format: cell-based, human; details: CH1/PA‐1, MTT assay, exposure time 96 h, means ± SDs
# SW480 [6] = experiment: MTT cytotoxicity assay, monolayer culture; format: cell-based, human; details: SW480, MTT assay, exposure time 96 h, means ± SDs
# A549 [7] = experiment: MTT cytotoxicity assay, monolayer culture; format: cell-based, human; details: exposure time 96 h, means ± SDs
# [8] = UV/Vis stability in aqueous solution; format: physicochemical; details: in PBS, rank among osmium complexes
# Experimental: In order to investigate complex stabilities, UV/Vis spectrophotometry was conducted for all complexes. […] This process is fastest for complex 4 b* followed by complexes 4 a* and finally 4 c* in PBS. Decomposition of the osmium compounds was slightly slower in pure water (Figure 5).
# UV/Vis spectra were recorded using a Hewlett Packard 8452A diode‐array spectrophotometer between 200–800 nm. The path length (l) was either 1 or 2 cm. UV/Vis spectra were recorded to confirm complex stability in aqueous systems and over a pH range 5.8–7.9.
# [9] = 1H NMR kinetics in D2O/1 % [D6]DMSO, repeated 1:1 dilution
# Experimental: In order to elucidate the fate of complex 4 c* and a possible concentration effect on its stability, additional NMR and MS experiments were carried out. […] Consequently, the sample was diluted 1:1 (3 mg mL^−1) and kinetics were measured over 24 h a second time. This step was repeated six times in total (after 24, 48, 72, 96, 168, and 192 h; resulting in a final concentration of 176 μM). […] It was impossible to measure 2D NMR sets throughout the experiment, due to the low sample concentration.
# [10] = pH 5.8
# Experimental: In order to investigate a possible pH influence on complex stability and to gather further insights into the instability of the osmium complexes, UHPLC kinetic measurements were carried out at pH values of 5.8, 6.2, 6.7, 7.2 and 7.9 in phosphate buffered solution via UHPLC. […] Due to pump pressure fluctuations the retention times tended to shift ±0.18 min.
# Stock solutions containing the desired complex in DMSO (5 mM) were diluted with phosphate buffer to a final concentration of 50 μM compound in 1 % DMSO/20 mM buffer and directly analyzed via gradient UHPLC runs over 24 h. Phosphate buffers at pH 5.8, 6.2, 6.7, 7.2 and 7.9 were employed to ensure a constant pH value. The instrument was set to 0.6 mL min^−1 flow rate, 37 °C sampler temperature, 25 °C column compartment, 225 nm detection wavelength, 95 % MeOH in MiliQ water +0.1 % formic acid over 7.0 min.
# [11] = test system: human cancer cell lines CH1/PA‐1, SW480, A549; details: tested cancer cell lines
# Experimental: Cytotoxicity of the compounds in monolayer cultures was determined by the colorimetric MTT assay (MTT=3‐(4,5‐dimethyl‐2‐thiazolyl)‐2,5‐diphenyl‐2H‐tetrazolium bromide). 1×10^3 CH1/PA‐1, 2×10^3 SW480 and 3×10^3 A549 cells were seeded in 100 μL supplemented MEM per well into 96‐well flat‐bottom microculture plates. […] After 96 h, the drug‐containing medium was replaced with 100 μL of RPMI 1640/MTT mixture [6 parts of RPMI 1640 medium (supplemented with 10 % heat‐inactivated fetal bovine serum and 4 mM L‐glutamine), 1 part of MTT solution in phosphate‐buffered saline (5 mg mL^−1)]. After incubation for 4 h, the mixture was replaced with 150 μL DMSO per well to dissolve the formazan product formed by viable cells. Optical densities at 550 nm (and at a reference wavelength of 690 nm) were measured with a microplate reader (ELx808, Bio‐Tek).
# [12] = test system: autochthonous colon cancer; design: method as in earlier work; details: rat model, well tolerable dose, cited from earlier work
SMILES,IC50 (SW480 [1]) [µM],IC50 (A549 [2]) [µM],IC50 (CH1/PA‐1 [3]) [µM],IC50 (CH1/PA‐1 [5]) [nM],IC50 (SW480 [6]) [µM],IC50 (A549 [7]) [nM],other results
[Cl][Ru-]([Cl])([Cl])[Cl].[Na+].c1ccc2[nH]ncc2c1.c1ccc2[nH]ncc2c1 [BOLD‐100],62 ± 9,156 ± 11,50 ± 6,–,–,–,–
N.N.[Cl][Pt][Cl] [Cisplatin],3.5 ± 0.3,1.3 ± 0.4,0.16 ± 0.03,–,–,–,activity in CH1/PA‐1 cells relative to SW480 cells [4]: up to 22 times
"Cc1c([O-])c(=S)ccn1-c1ccccc1.Cc1ccc(C(C)C)cc1.[Cl-].[Os+2] [Compound 4 b, Chlorido[2‐methyl‐3‐(oxo‐κO)‐1‐phenylpyridine‐4(1H)‐thionato‐κS](η^6‐p‐cymene)osmium(II)]",–,–,–,1130 ± 30,5.8 ± 0.3,2200 ± 1100,decomposition speed by UV/Vis [8]: fastest
"Cc1c([O-])c(=S)ccn1Cc1ccccc1.Cc1ccc(C(C)C)cc1.[Cl-].[Os+2] [Compound 4 c, Chlorido[1‐benzyl‐2‐methyl‐3‐(oxo‐κO)‐pyridine‐4(1H)‐thionato‐κS](η^6‐p‐cymene)osmium(II)]",–,–,–,1300 ± 200,5.6 ± 0.7,2200 ± 1200,"dilution at which formation of a second species became apparent [9]: 375 µg/mL; stability by UHPLC [10]: stable over 24 h; IC50 values, in words [11]: low micromolar range"
"[Cl-].[Cl-].[Cl-].[Cl-].[Ru+3].c1ccc2[nH][nH+]cc2c1.c1ccc2[nH]ncc2c1.c1ccc2[nH]ncc2c1 [KP1019, indazolium trans‐[tetrachlorido‐bis(1H‐indazole)ruthenate(III)]]",–,–,–,–,–,–,reduction of tumor volume ([12]; autochthonous colon cancer): up to 95%; weight loss [12]: no more than 6%
